Where a name gives a salt, the structure may show the parent alone. Read-outs that look alike come from different tables or passages of the source.
Assays:
[1] = tested on: HCC827; test: MTS cytotoxicity assay, 2D cell culture; conditions: Homo sapiens, HCC827, 72 h, read-out: Cytotoxicity Assay IC50 ± SD; HCC827 2D
Experimental: (§1) MTS assay gives us information about the number of living cells, in this case, metabolically active cells, whereas the BrdU proliferation assay gives a measure of the cell population in active division phase. Both assays were performed in 2D and 3D assay formats. For the 2D cell assay format, we used classic two-dimensional in vitro assays and as a 3D assay we used a hanging drop proliferation cell assay as previously described. We explored the activity of compounds on three human lung cancer cell lines, A549, HCC827 and NCI-H358. The compound activity was also tested on human lung fibroblast cell line MRC-5. A two-dimensional in vitro viability assay was performed on the MRC-5 cell line to see if tested compounds are cytotoxic on normal cell lines in low concentrations. […] 7.1.
(§2) Test compounds were synthesized by a research group at the Department of Organic Chemistry, Faculty of Chemical Engineering and Technology, University of Zagreb. […] Compounds were diluted 1:3. We transferred 500 nL (for 2D cell culture) or 400 nL (for 3D cell culture) of the compound from a mother plate to test plate by using Mosquito (TTP labtech). DMSO percentage in test concentrations was 0.5–1.0%. Starting concentration of the test compounds and standard compound doxorubicin was 50 µM (2D cell culture) or 100 µM (3D cell culture).
(§3) Cells were grown in 96-well cell star polystyrene plates. We seeded 10,000 cells/well in wells 4 h prior to the treatment with different compounds concentrations and incubated for 72 h. A cell viability assay was performed according to the manufacturer’s instructions, using CellTiter 96 aqueous solution, MTS kit (Promega, Madison, WI, USA). After 0.5–2 h of cell incubation with MTS in 2D cell culture, the plates were read using PE EnVision absorbance at 490 nm.
(§4) Calculation of IC50 data, curves and QC analysis was performed by using Excel tools and GraphPadPrism software (La Jolla, CA, USA), v. […] QC criteria parameters (Z’, S:B, R2, HillSlope) were checked for every IC50 curve.

[2] = MTS cytotoxicity assay, 2D cell culture, normal lung fibroblasts; conditions: human
Experimental: as §1, §2, §3, §4

[3] = tested on: A549; test: BrdU proliferation assay, 2D cell culture; type: cell-based, human; conditions: Homo sapiens
Experimental: as §1, §2, §3
(§5) Proliferation assay was performed using Cell Proliferation ELISA, BrdU (Sigma, St. Louis, MO, USA). Briefly, 48 h hours after compound addition, 10 µM of BrdU was added to each well and incubated for the following 24 h. After incubation, a single cell suspension was made for 3D cell culture in the new 96-well plate. Plates were centrifuged and supernatants were removed from each plate (for 2D and 3D cell culture) followed by 60 min incubation at 60 °C. The rest of the proliferation assay was performed according to the manufacturer’s instructions.
as §4

[4] = tested on: HCC827; test: BrdU proliferation assay, 2D cell culture; type: cell-based, human; conditions: Homo sapiens
Experimental: as §1, §2, §3, §5, §4

[5] = tested on: A549; test: BrdU proliferation assay, 3D hanging drop cell culture; type: cell-based, human; conditions: Homo sapiens
Experimental: as §1, §2
(§6) Cells were grown in 96-well Perfecta 3D hanging drop plates 5000 cell/well for 4 days until spheres were formed (and checked under the microscope). After sphere formation cells were treated with compounds followed by 72 h incubation. Cell viability assay was performed according to the manufacturer’s instructions, using CellTiter GLO 3D for 3D cell culture (Promega); cell incubation was 5 min on the shaker followed by 25 min incubation in the dark. Plates were read using PE EnVision luminescence.
as §5, §4

[6] = tested on: E. coli ATCC 25922; test: Broth microdilution testing (CLSI); type: cell-based, Escherichia coli; conditions: Escherichia coli
Experimental: (§7) Broth microdilution testing was performed according to CLSI (Clinical Laboratory Standards Institute) guidelines. MIC (minimal inhibitory concentration) value was defined as the last tested concentration of compound at which there is no visible growth of bacteria. […] Clinical and Laboratory Standards Institute (CLSI) guidelines.

[7] = tested on: S. aureus ATCC 29213; test: Broth microdilution testing (CLSI); type: cell-based, Staphylococcus aureus; conditions: Staphylococcus aureus
Experimental: as §7

[8] = tested on: S. cerevisiae ATCC 7752; test: Broth microdilution testing (CLSI); type: cell-based, Saccharomyces cerevisiae; conditions: Saccharomyces cerevisiae
Experimental: as §7

[9] = tested on: A549; test: MTS cytotoxicity assay, 2D cell culture; conditions: Homo sapiens, A549, 72 h, read-out: Cytotoxicity Assay IC50 ± SD, A549 2D
Experimental: as §1, §2, §3, §4

[10] = tested on: NCI-H358; test: MTS cytotoxicity assay, 2D cell culture; conditions: Homo sapiens, NCI-H358, 72 h, read-out: Cytotoxicity Assay IC50 ± SD; NCI-H358 2D
Experimental: as §1, §2, §3, §4

[11] = tested on: A549; test: Cytotoxicity (viability) assay, 3D hanging drop cell culture; conditions: Homo sapiens, A549, 72 h, read-out: Cytotoxicity Assay IC50 ± SD; A549 3D
Experimental: as §1, §2, §6, §4

[12] = tested on: HCC827; test: as above; conditions: Homo sapiens, HCC827, 72 h, read-out: Cytotoxicity Assay IC50 ± SD; HCC827 3D
Experimental: as §1, §2, §6, §4

[13] = tested on: NCI-H358; test: as above; conditions: Homo sapiens, NCI-H358, 72 h, read-out: Cytotoxicity Assay IC50 ± SD; NCI-H358 3D
Experimental: as §1, §2, §6, §4

[14] = tested on: NCI-H358; test: BrdU proliferation assay, 2D cell culture; type: cell-based, human; conditions: Homo sapiens, NCI-H358, 2D, n = 2, read-out: Proliferation Assay IC50 ± SD
Experimental: as §1, §2, §3, §5, §4

[15] = tested on: HCC827; test: BrdU proliferation assay, 3D hanging drop cell culture; type: cell-based, human; conditions: Homo sapiens
Experimental: as §1, §2, §6, §5, §4

[16] = tested on: NCI-H358; test: as above; type: cell-based, human; conditions: Homo sapiens, NCI-H358, 3D, n = 2, read-out: Proliferation Assay IC50 ± SD
Experimental: as §1, §2, §6, §5, §4

[17] = A549, read-out: Proliferation Assay IC50 ± SD, A549 2D
[18] = HCC827, read-out: Proliferation Assay IC50 ± SD, HCC827 2D
[19] = A549, read-out: Proliferation Assay IC50 ± SD, A549 3D
[20] = ATCC25922, broth microdilution, 16–24h at 37 °C, read-out: MIC E. coli ATCC 25922
[21] = ATCC29213, broth microdilution, 16–24h at 37 °C, read-out: MIC S. aureus ATCC 29213
[22] = ATCC7752, broth microdilution, 16–24h at 37 °C, read-out: MIC S. cerevisiae ATCC 7752

Work on `CN[C@@H]1C[C@H]2O[C@@](C)([C@@H]1OC)n1c3ccccc3c3c4c(c5c6ccccc6n2c5c31)C(=O)NC4` [Staurosporine, reference compound] yielded an IC50 [1] of 0.033 ± 0.002 µM, an IC50 at 72 h [2] of 0.031 ± 0.011 µM and an IC50 [3, 17] of 0.035 ± 0.017 µM. It also gave an IC50 [4, 18] of 0.004 ± 0.002 µM and an IC50 [5, 19] of 0.11 ± 0.001 µM.

Work on `CC(C)NC(=N)c1ccc2nc(-c3ccc(-c4ccc([N+](=O)[O-])cc4)o3)sc2c1` (as salt: hydrochloride) [Compound 5, 2-[5-(4-Nitrophenyl)furan-2-yl]-6-N-isopropilamidinobenzothiazole hydrochloride] yielded a melting point of 201 to 206 °C.

In the case of `CC(C)NC(=N)c1ccc2[nH]c(-c3ccc(-c4ccc([N+](=O)[O-])cc4)o3)nc2c1` (as salt: hydrochloride) [Compound 11, 2-[5-(4-Nitrophenyl)furan-2-yl]-5(6)-N-isopropilamidinobenzimidazole hydrochloride], the melting point is reported as over 270 °C.

Compound `C[C@@H](c1ncncc1F)[C@](O)(Cn1cncn1)c1ccc(F)cc1F` [Voriconazole, reference compound] has an MIC [6, 20] of over 64 µM, an MIC [7, 21] of over 64 µM and an MIC [8, 22] of under 0.125 µM.

For `N#C/C(=C\c1ccc(-c2ccc([N+](=O)[O-])cc2)o1)c1nc2ccccc2s1` [Compound 19, (E)-2-(Benzothiazol-2-yl)-3-[5-(4-nitrophenyl)furan-2-yl]acrylonitrile], the IC50 ([9]; 72 h, MTS, n = 2) was over 50 µM, the IC50 [1] was over 50 µM and the IC50 [10] was over 50 µM. For the same compound, the IC50 [11] was over 100 µM, the IC50 [12] was over 100 µM and the IC50 [13] was over 100 µM. It also gave an IC50 at 72 h ([2]; MRC-5 normal lung fibroblasts, 2D culture) of over 50 µM, an IC50 ([3]; A549, 2D, BrdU, n = 2, read-out: Proliferation Assay IC50 ± SD) of over 50 µM and an IC50 ([4]; HCC827, 2D, BrdU, n = 2, read-out: Proliferation Assay IC50 ± SD) of over 50 µM. For the same compound, the IC50 [14] was over 50 µM, the IC50 ([5]; A549, 3D, BrdU, n = 2, read-out: Proliferation Assay IC50 ± SD) was over 100 µM and the IC50 ([15]; HCC827, 3D, BrdU, n = 2, read-out: Proliferation Assay IC50 ± SD) was over 100 µM. It also gave an IC50 [16] of over 100 µM, an MIC [6, 20] of over 100 µM and an MIC [7, 21] of over 100 µM. For the same compound, the MIC [8, 22] was over 100 µM and the melting point was 240 to 242 °C.

`N#C/C(=C\c1ccc(-c2ccc(Cl)cc2)o1)c1nc2ccccc2s1` [Compound 22, (E)-2-(Benzothiazol-2-yl)-3-[5-(4-chlorophenyl)furan-2-yl]acrylonitrile] showed an IC50 [9] of over 50 µM, an IC50 [1] of over 50 µM and an IC50 [10] of over 50 µM. It also gave an IC50 [11] of over 100 µM, an IC50 [12] of over 100 µM and an IC50 [13] of over 100 µM. The IC50 at 72 h [2] was over 50 µM, the IC50 [3, 17] was over 50 µM and the IC50 [4, 18] was over 50 µM. The IC50 [14] was over 50 µM, the IC50 [5, 19] was over 100 µM and the IC50 ([15]; HCC827, read-out: Proliferation Assay IC50 ± SD, HCC827 3D) was over 100 µM. The IC50 [16] was over 100 µM, the MIC ([6]; ATCC25922, read-out: MIC E. coli ATCC 25922) was over 100 µM and the MIC ([7]; ATCC29213, read-out: MIC S. aureus ATCC 29213) was over 100 µM. It also gave an MIC ([8]; ATCC7752, read-out: MIC S. cerevisiae ATCC 7752) of over 100 µM.

`CC(C)NC(=N)c1ccc2[nH]c(-c3ccc(-c4ccc(Cl)cc4)o3)nc2c1` (as salt: hydrochloride) [Compound 14, 2-[5-(4-Chlorophenyl)furan-2-yl]-5(6)-isopropilamidinobenzimidazole hydrochloride] gave a melting point of 242 to 246 °C.
